Source: patent US20080108568A1, “COMPOUNDS FOR IMPROVING LEARNING AND MEMORY” (TGEN, priority 2006, published 2008)
Entries after “also recorded” stand apart in the source; their conditions may differ.

Key:
[1] = tested on: aged (18-months old) rats; assay: water escape radial arm maze, more difficult version of the working memory trial (7 out of 8 arms platformed); assay type: in vivo, rat
Method: (§1) This experiment included a decreased pre-loading phase, a more difficult version of the working memory trial (where 7 out of 8 arms were platformed), and an elongated version of the Morris maze (7 days plus a “probe” trial). Fasudil was delivered via daily sub-cutaneous injections to aged (18-months old) rats at doses of 3 mg/kg/day (n=8) or 10 mg/kg/day (n=8). Controls included both aged and young (4-months old) rats injected daily with vehicle (normal saline). The low dose for Fasudil was based upon the evidence in Example 3 showing efficacy and the high dose was based on that reported in the literature as a commonly used low therapeutic dose. There was a one day loading period for this experiment.

[2] = tested on: aged (18-months old) rats; assay: tolerability observation during daily sub-cutaneous dosing; assay type: in vivo, rat; conditions: 10 mg/kg/day s.c., after 7 days of drug delivery; animals switched to the low dose
Method: as §1

aged rats = assay: Morris water maze (reference memory); assay type: in vivo, rat
Method: The rats were also tested using the Morris water maze. The Morris water maze consists of a circular water bath with a single platform. The bath is divided into 4 quadrants and various annuli. A rat was placed in the water bath and the time and distance that the rat required to reach the platform was measured. The solving strategy used by the rat was also noted. The movement of the rat was tracked using a digital tracking system. Each rat underwent 4 trials per day, with entry into the maze varied by quadrant for each trial. The Morris water maze included 5 days of testing, with the first 4 days involving testing and day 5 involving a probe trial.
(§2) Aged animals were pre-loaded for 14 days at 10mg/kg/day (FAS LOW DOSE+PRIMING) or at 3 mg/kg/day (FAS LOW DOSE). After 14 days all animals were administered 3 mg/kg/day. Vehicle was normal saline (0.9%). The rats were subjected to the Radial Arm Maze and the Morris Water Maze described above.
Fasudil was also delivered via daily sub-cutaneous injections to aged (18-months old) rats at doses of 3 mg/kg/day (n=8) or 30 mg/kg/day (n=8). Controls included both aged and young (4-months old) rats injected daily with vehicle (normal saline). The low dose for Fasudil was based upon the previous study showing efficacy with 0.750 mg/kg/day hydroxyfasudil and the high dose was based on that reported in the literature as a commonly used therapeutic dose.

[3] = tested on: aged rats (18 months old); assay: water escape radial arm maze test (4 of 8 arms platformed); assay type: in vivo, rat
Method: Hydroxyfasudil was tested in vivo by administering to aged rats (18 months old) two doses of 0.75 mg/kg and 0.375 mg/kg, delivered subcutaneously each day for a period of 4-5 days before testing. During testing, hydroxyfasudil was administered in the morning of each testing day. Two control groups were used, with one group being untreated and the other group treated with the vehicle (saline). Both control groups include 9 members, with an age of 4 months.
The rats were then tested using the water escape radial arm maze test. The radial arm maze is a swim-based test without the need for food deprivation. The maze consists of 8 radial arms, with 4 of the arms having a submerged platform. […] The rat was given 180 seconds to locate a platform. If the rat located a platform, the rat was allowed 15 seconds on the platform, and was then removed. When a rat found a platform, that platform was removed prior to beginning the next trial. Each rat was subjected to 4 trials per day, with 1 trial per platform and 30 seconds between trials. Each rat was tested over a period of 12 days, with the first day consisting of training, days 2-7 considered “initial,” and days 8-12 considered “latter.”
Additional efficacy testing was performed using twenty-seven 18-month old male rats were utilized and divided randomly into three treatment groups: saline vehicle (“Aged Vehicle”), hydroxyfasudil in saline at a dose of 0.1875 mg per day (“Aged Low Dose”), and hydroxyfasudil at a dose of 0.3750 mg per day (“Aged High Dose”). Daily injections of the assigned substrate began four days prior to behavioral testing and continued throughout testing, with injections given approximately one hour before daily testing ensued. Animals were tested 4 trials per day for 12 consecutive days. Following the water radial arm maze, spatial reference memory was assessed using the Morris water maze. This testing consisted of 4 trials per day for 4 days with an additional probe trial on the final day.
Using the protocol described above for hydroxyfasudil, rats were treated with from 1 mg/kg to 2 mg/kg of fenretinide. The rats were subjected to the Radial Arm Maze and the Morris Water Maze described above.
as §2

[4] = tested on: “memory molecule” transcripts in the hippocampus; assay: expression profile of the entire hippocampus of hydroxyfasudil treated animals; assay type: in vivo; conditions: FIG. 6
From the text: The tissue source is the entire hippocampus.
After testing, the rats were terminated and the brain dissected.

[5] = rats, 1 mg/kg to 2 mg/kg, FIG. 7

## O=S(=O)(c1cccc2cnccc12)N1CCCNCC1 [Fasudil, fasudil]
[1]; FIG. 12 legend
  memory performance: improves memory performance
[1]; aged rats, 3 or 10 mg/kg/day s.c. (10 mg/kg/day switched to low dose after 7 days), especially trials 6 and 7, FIG. 12
  working memory performance: significant improvement in working memory performance
[2]
  trauma in dosed animals: began to show similar trauma as in the previous study
Aged rats; 3 mg/kg/day s.c.
  efficacy of the low dose (evidence in Example 3): efficacy
Aged rats; 14 days pre-loading at 10 or 3 mg/kg/day, then 3 mg/kg/day, collapsed across trials each day, FIG. 11A
  reference memory performance (inches swam to locate the hidden platform), by day: improves reference memory performance
Aged rats; 14 days pre-loading at 10 or 3 mg/kg/day, then 3 mg/kg/day, collapsed by trial for all four days, FIG. 11B
  reference memory performance (inches swam to locate the hidden platform), by trial: improves reference memory performance

## O=c1[nH]ccc2c(S(=O)(=O)N3CCCNCC3)cccc12 [hydroxyfasudil]
[3]; 18-month old male rats, 0.1875 mg per day and 0.3750 mg per day, daily injections from four days before testing, FIG. 16
  memory (working memory): improved memory; also recorded: improves working memory
[3]; FIG. 5 legend
  working memory: improves working memory
[3]; aged rats, 0.75 mg/kg and 0.375 mg/kg s.c. daily, FIGS. 3-5
  memory: improved memory
[3]; aged rats, 0.75 mg/kg and 0.375 mg/kg subcutaneously each day, FIGS. 3-4
  learning scores (orthogonal measures of working memory): improved learning scores
[3]; aged rats, 0.75 mg/kg vs 0.375 mg/kg s.c. daily, FIGS. 3-4
  improvements of learning, higher doses versus smaller doses: greater improvements of learning
[3]; aged rats, 0.75 mg/kg vs 0.375 mg/kg s.c. daily, FIGS. 3-5
  improvements of memory, higher doses versus smaller doses: greater improvements of memory
[3]; aging rats receiving the compound
  performance of aging rats compared with young rats: perform at a level comparable to young rats
[4]
  “memory molecule” transcripts in the hippocampus: alteration of “memory molecule” transcripts

## CC1=C(/C=C/C(C)=C/C=C/C(C)=C/C(=O)Nc2ccc(O)cc2)C(C)(C)CCC1 [fenretinide]
[3]; 6 rats per group, FIG. 7 legend
  working memory: improving working memory
[3]; [5]
  memory, greater doses versus smaller doses: improved memory more than smaller doses
  number of incorrect errors made by the rats, versus the control: lowered the number of incorrect errors
